{"source": "paper PMC5118533", "about": "“Phase II Trial of Angiotensin-(1-7) for the Treatment of Patients with Metastatic Sarcoma” (Sarcoma, 2016)", "key": {"[1]": {"assay": "Plasma Ang-(1-7) concentration, radioimmunoassay", "assay_type": "in vivo", "details": "human, sc, median, RIA, P < 0.05 vs baseline", "experimental": "In the phase I trial, statistically significant changes in PlGF concentrations were identified 4 hours after the first Ang-(1-7) injection. To prospectively evaluate this biomarker, PlGF levels as well as VEGF, Ang-(1-7), Ang II, and Ang I were measured prior to the first dose, 4 hours after the first dose, and after 21 days of treatment in the phase II trial. Blood samples were immediately placed on ice and processed within 30 minutes of collection. For the angiotensin peptides, blood was taken in an EDTA containing tube with a cocktail of inhibitors to prevent in vitro generation or degradation of peptides, as previously described. Plasma samples were stored at −80°C. Concentrations of Ang-(1-7) (developed by laboratory), Ang II (Alpco, Windham, NH), and Ang I (Peninsula, San Carlos, CA) were measured by the Hypertension Core Facility of Wake Forest University using three established radioimmunoassay methods. Aliquots of plasma from the same time points were assayed by Aushon Biosystems (Billerica, MA) using Searchlight ELISA technology to quantify circulating vascular endothelial growth factor (VEGF) and placental growth factor (PlGF). […]\nThe study was designed with 87% power to detect a response rate by RECIST criteria of 10% in the study population. […] Levels of biomarker expression over time were evaluated using nonparametric, Wilcoxon signed rank tests. […]"}, "[2]": {"details": "phase I, ref [16], cited from earlier work", "text": "A phase I trial using subcutaneous administration of Ang-(1-7) for the treatment of patients with advanced solid tumors was previously reported. This study evaluated the maximum tolerated dose (MTD), toxicities, and pharmacokinetics of Ang-(1-7) when given subcutaneously once daily for five consecutive days on a 21-day cycle. This study identified 400 mcg/kg as the MTD for this schedule."}, "[3]": {"assay": "Phase II trial: adverse events (CTCAE v3.0)", "assay_type": "in vivo, human", "experimental": "Ang-(1-7) was administered by subcutaneous injection once daily continuously. One cycle was defined as a 21-day period. Toxicities were assessed weekly during the first cycle and on the first day of each subsequent cycle. In the absence of unacceptable treatment-related toxicity, patients continued treatment until disease progression.\nTwo dose cohorts were planned. In the first cohort, twenty patients were treated at a dose of 20 mg daily which is similar to the weight-based dose of 400 mcg/kg identified as the MTD in the phase I study. Unlike the phase I study, this study utilized continuous daily dosing rather than five days every three weeks. A planned interim safety evaluation was performed after the enrollment of 10 patients in the first cohort. […] Patients in this cohort would have received Ang-(1-7) at a dose of 10 mg daily if excessive toxicities had been observed in the 20 mg cohort. Safety events that would trigger dose deescalation included 3 strokes in any cohort or other evidence of excessive toxicity.\nTumor measurements were performed using RECIST version 1.1 prior to initiation of treatment and then every two cycles until disease progression or unacceptable toxicity. Toxicities were graded using the Common Terminology Criteria for Adverse Events, version 3.0. […]"}}, "note": "Where two headings read alike, the source gives them in different places."}
{"smiles": "CC[C@H](C)[C@H](NC(=O)[C@H](Cc1ccc(O)cc1)NC(=O)[C@@H](NC(=O)[C@H](CCCNC(=N)N)NC(=O)[C@@H](N)CC(=O)O)C(C)C)C(=O)N[C@@H](Cc1c[nH]cn1)C(=O)N1CCC[C@H]1C(=O)O", "note": "[Ang-(1-7), Angiotensin-(1-7)]", "values": [{"measurement": "level at 4 h", "setting": "[1]; 4 hours after first dose, 20 mg s.c.", "value": 0.0611, "unit": "ng/mL"}, {"measurement": "level at 528 h", "setting": "[1]; day 22, 20 mg daily s.c.", "value": 0.0412, "unit": "ng/mL"}, {"measurement": "serious adverse event at least possibly related", "setting": "[2]; 400 mcg/kg dose level", "value": "deep vein thrombosis"}, {"measurement": "half-life at the MTD", "setting": "[2]; 400 mcg/kg s.c., considerable intra- and interpatient variability", "value": 36, "unit": "min"}, {"measurement": "serious adverse event at least possibly related", "setting": "[2]; 700 mcg/kg dose level (first event named)", "value": "stroke"}, {"measurement": "serious adverse event at least possibly related", "setting": "[2]; 700 mcg/kg dose level (second event named)", "value": "cranial neuropathy"}, {"measurement": "maximum tolerated dose (MTD)", "setting": "[2]; s.c. once daily for five consecutive days on a 21-day cycle, advanced solid tumors", "value": 0.4, "unit": "mg/kg"}, {"measurement": "deaths on study or within 30 days of completing treatment", "setting": "[3]; 20 patients, all attributed to progressive cancer, felt unrelated to treatment", "value": "Three"}, {"measurement": "pregnancy outcome", "setting": "[3]; in vivo", "value": "delivered a healthy child"}]}
